Experimental data published in PMC7340268, “Structural definition of polyspecific compensatory ligand recognition by P-glycoprotein” (IUCrJ, 2020).
“Also recorded” adds a separate entry of the source. Marks after values point to notes of the source that are not given here.

What was measured:
[1] = target: Pgp (PDB entry 4xwk) (Mus musculus, UniProt P21447); experiment: Authors' own occupancy refinement of the published Pgp-BDE-100 structure; format: binding; details: own refinement using the deposited structure factors
Pgp (PDB entry 4xwk), sequence (P21447 whole entry): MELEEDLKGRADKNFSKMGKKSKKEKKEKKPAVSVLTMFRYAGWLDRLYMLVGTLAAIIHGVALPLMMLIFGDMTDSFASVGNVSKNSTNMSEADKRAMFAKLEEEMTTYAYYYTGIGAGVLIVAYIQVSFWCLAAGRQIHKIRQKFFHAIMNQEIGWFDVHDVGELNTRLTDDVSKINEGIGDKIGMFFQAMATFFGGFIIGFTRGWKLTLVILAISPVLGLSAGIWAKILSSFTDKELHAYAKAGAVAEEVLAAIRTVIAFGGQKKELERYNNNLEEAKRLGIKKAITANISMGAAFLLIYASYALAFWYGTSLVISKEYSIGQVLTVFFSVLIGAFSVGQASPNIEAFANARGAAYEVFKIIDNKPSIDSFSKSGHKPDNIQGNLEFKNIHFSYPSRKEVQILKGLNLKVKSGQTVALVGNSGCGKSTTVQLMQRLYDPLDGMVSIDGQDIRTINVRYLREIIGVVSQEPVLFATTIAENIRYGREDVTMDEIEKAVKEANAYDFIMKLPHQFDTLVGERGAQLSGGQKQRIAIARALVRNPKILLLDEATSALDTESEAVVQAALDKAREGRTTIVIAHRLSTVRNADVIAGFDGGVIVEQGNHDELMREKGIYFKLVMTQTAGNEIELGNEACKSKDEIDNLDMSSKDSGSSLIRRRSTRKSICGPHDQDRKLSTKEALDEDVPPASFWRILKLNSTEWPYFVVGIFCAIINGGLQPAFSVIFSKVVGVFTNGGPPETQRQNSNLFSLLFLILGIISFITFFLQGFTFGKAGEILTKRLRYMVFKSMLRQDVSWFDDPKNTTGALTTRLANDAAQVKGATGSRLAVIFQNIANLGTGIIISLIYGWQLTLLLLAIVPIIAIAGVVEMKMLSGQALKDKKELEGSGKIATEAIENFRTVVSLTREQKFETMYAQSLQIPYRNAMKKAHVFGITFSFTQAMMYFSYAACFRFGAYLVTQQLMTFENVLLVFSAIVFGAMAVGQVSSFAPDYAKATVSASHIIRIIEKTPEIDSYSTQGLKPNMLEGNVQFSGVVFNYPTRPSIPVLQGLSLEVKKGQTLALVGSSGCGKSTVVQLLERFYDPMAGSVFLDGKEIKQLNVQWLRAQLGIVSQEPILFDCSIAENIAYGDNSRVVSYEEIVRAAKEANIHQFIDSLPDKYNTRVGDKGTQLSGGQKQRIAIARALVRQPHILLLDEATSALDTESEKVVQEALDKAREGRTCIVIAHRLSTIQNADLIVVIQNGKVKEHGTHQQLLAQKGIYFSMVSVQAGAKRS
From the text: X-ray diffraction data were collected at 100 K on beamline 23-ID-D at the Advanced Photon Source (APS). MAD scans were obtained from Pgp–BDE-100 co-crystals near the Br K edge to optimize for the strongest anomalous signal at the beginning of each data-collection session and whenever data were collected from a new mutant. The data were processed, integrated and scaled with HKL-2000 (Otwinowski & Minor, 1997[▸]). The Pgp structures were solved by molecular replacement using the previously solved BDE-100 complex structure (PDB entry 4xwk; Nicklisch et al., 2016[▸]) without the BDE-100 (Table 1 ▸) using an initial rigid-body refinement of the two pseudosymmetric halves of the protein. […] Phenix.elbow was used to produce ligand description dictionaries (Adams et al., 2010[▸]) and the placement of BDE-100 was verified by anomalous scattering of the Br atoms and OMIT density (see Fig. 1 ▸ for top views, Supplementary Fig. S1 for side views and Supplementary Fig. S2 for ligand F o − F c OMIT maps) calculated via CNS (Brünger et al., 1998[▸]). […] All models were subjected to rigid-body, xyz, group B-factor and individual B-factor refinement using phenix.refine (Afonine et al., 2010[▸]) and the model geometry was monitored using MolProbity (Chen et al., 2010[▸]) in the absence of the ligand. […] Figures were prepared and r.m.s.d.s were calculated in PyMOL (version 1.8; Schrödinger). […]

[2] = system: wild-type Pgp; parameters: method as in Nicklisch et al., 2016; details: ref Nicklisch et al., 2016, cited from earlier work
[3] = target: T1, Pgp C952A/F979A (Mus musculus, UniProt P21447, C952A/F979A); experiment: Co-crystal structure, occupancy refinement of BDE-100; format: binding
T1 construct: 6xHis (C); made in house; host or cells: Pichia pastoris
Description: (§1) To reproduce the binding of BDE-100 to Pgp and maintain crystal isomorphism, we utilized the reductive-methylation protocol of Ward et al. (2013[▸]) with some modifications. Fresh dimethylamine–borane (20 mM; Sigma–Aldrich) and 16% formaldehyde (40 mM; Thermo Scientific) were added to 1–3 mg mouse Pgp. The mixture was incubated for 2 h at 4°C and further dimethylamine–borane and formaldehyde were added after 2 h. After incubation for 16 h at 4°C, the reaction was quenched with cold glycine on ice for 2 h and flushed with SEC buffer (10 mM Tris–HCl pH 7.5, 75 mM NaCl, 0.0375% DDM, 0.04% sodium cholate, 0.1 mM TCEP). The eluted protein was concentrated to 2–3 mg ml^−1 and incubated with 0.5 mM BDE-100 (AccuStandard) dissolved in DMSO in the dark for 16 h at 4°C. The precipitate was centrifuged and the extracted sample was […] 1:10 in SEC buffer to give a final concentration of 10–13 mg ml^−1. Crystallization was set up using 3 µl sitting drops in 24-well Cryschem plates (Hampton Research) with a 1:1 ratio of protein solution and reservoir solution [0.1 M HEPES, 50 mM lithium sulfate, 10 mM EDTA, 26–28.5%(w/v) polyethylene glycol (PEG) 600 pH 7.9–8.4]. Crystals could be visualized after ∼3 days at 4°C and reached full size in ∼4 weeks.
(§2) X-ray diffraction data were collected at 100 K on beamline 23-ID-D at the Advanced Photon Source (APS). MAD scans were obtained from Pgp–BDE-100 co-crystals near the Br K edge to optimize for the strongest anomalous signal at the beginning of each data-collection session and whenever data were collected from a new mutant. The data were processed, integrated and scaled with HKL-2000 (Otwinowski & Minor, 1997[▸]). The Pgp structures were solved by molecular replacement using the previously solved BDE-100 complex structure (PDB entry 4xwk; Nicklisch et al., 2016[▸]) without the BDE-100 (Table 1 ▸) using an initial rigid-body refinement of the two pseudosymmetric halves of the protein. Subsequent rounds included the full molecule with chains linked including ligands. Phenix.elbow was used to produce ligand description dictionaries (Adams et al., 2010[▸]) and the placement of BDE-100 was verified by anomalous scattering of the Br atoms and OMIT density (see Fig. 1 ▸ for top views, Supplementary Fig. S1 for side views and Supplementary Fig. S2 for ligand F o − F c OMIT maps) calculated via CNS (Brünger et al., 1998[▸]). The structures agreed with the previously solved structure as our control mutant (C952A) contained BDE-100 in the same position based on experimental data. All models were subjected to rigid-body, xyz, group B-factor and individual B-factor refinement using phenix.refine (Afonine et al., 2010[▸]) and the model geometry was monitored using MolProbity (Chen et al., 2010[▸]) in the absence of the ligand. The BDE-100 atoms were then modeled and the structures were subjected to the same refinement steps including occupancy refinement using an occupancy of 0.5 as the starting point. […] We conclude there is a sufficient data-to-parameter ratio to refine both B factors and occupancy for the BDE-100 ligand in PDB entry 4xwk as well as in all of our structures. Our own refinement of PDB entry 4xwk yielded a ligand occupancy of 0.66 and our control mutant C952A agreed very well, with a refined occupancy of 0.67 (for a full list, see Table 2 ▸). The refined occupancy values for ligands also agreed very well with the intensities of their respective anomalous difference Fourier electron densities. Data statistics and parameters supporting the quality of the structures are presented in Table 1 ▸ and Supplementary Table S1. Figures were prepared and r.m.s.d.s were calculated in PyMOL (version 1.8; Schrödinger). […]

[4] = target: T2, Pgp C952A (Mus musculus, UniProt P21447, C952A); experiment: as above; format: binding
T2 construct: 6xHis (C); made in house; host or cells: Pichia pastoris
Description: as §1, §2

[5] = target: T3, Pgp C952A/F728A (Mus musculus, UniProt P21447, C952A/F728A); experiment: as above; format: binding
T3 construct: 6xHis (C); made in house; host or cells: Pichia pastoris
T3 sequence (P21447 whole entry F728A/C952A): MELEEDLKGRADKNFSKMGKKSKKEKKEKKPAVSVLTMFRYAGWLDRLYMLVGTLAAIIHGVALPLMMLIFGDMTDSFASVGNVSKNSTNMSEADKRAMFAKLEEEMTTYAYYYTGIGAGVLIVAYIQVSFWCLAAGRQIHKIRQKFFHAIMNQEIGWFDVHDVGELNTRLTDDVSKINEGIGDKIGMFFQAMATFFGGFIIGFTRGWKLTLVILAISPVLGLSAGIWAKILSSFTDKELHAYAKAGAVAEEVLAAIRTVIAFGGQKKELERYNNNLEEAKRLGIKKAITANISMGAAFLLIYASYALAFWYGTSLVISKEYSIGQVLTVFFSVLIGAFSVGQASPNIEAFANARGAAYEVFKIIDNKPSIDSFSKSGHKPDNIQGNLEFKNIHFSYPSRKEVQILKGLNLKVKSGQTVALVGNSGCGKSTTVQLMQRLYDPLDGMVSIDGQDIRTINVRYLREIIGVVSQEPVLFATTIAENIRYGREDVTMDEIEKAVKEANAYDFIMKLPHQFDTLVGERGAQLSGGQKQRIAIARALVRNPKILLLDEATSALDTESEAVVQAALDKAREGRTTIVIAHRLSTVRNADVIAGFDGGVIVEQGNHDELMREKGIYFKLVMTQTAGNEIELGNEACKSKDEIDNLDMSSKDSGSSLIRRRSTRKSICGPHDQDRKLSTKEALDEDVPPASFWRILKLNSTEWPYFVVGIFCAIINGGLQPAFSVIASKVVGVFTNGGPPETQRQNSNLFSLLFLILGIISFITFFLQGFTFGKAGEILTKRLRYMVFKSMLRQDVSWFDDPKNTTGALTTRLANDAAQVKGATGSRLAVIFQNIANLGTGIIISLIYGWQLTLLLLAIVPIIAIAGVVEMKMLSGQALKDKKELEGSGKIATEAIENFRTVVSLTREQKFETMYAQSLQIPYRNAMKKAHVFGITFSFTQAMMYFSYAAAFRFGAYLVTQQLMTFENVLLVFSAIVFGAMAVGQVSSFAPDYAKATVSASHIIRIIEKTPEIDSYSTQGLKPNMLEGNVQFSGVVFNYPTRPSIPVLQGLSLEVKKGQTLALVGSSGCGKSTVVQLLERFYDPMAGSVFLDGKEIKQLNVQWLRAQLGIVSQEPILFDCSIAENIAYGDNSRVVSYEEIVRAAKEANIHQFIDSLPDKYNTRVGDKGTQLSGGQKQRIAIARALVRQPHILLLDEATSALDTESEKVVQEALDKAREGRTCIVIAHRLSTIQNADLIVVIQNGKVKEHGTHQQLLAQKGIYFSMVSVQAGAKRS
Description: as §1, §2

[6] = target: T4, Pgp C952A/Y303A (Mus musculus, UniProt P21447, C952A/Y303A); experiment: as above; format: binding
T4 construct: 6xHis (C); made in house; host or cells: Pichia pastoris
T4 sequence (P21447 whole entry Y303A/C952A): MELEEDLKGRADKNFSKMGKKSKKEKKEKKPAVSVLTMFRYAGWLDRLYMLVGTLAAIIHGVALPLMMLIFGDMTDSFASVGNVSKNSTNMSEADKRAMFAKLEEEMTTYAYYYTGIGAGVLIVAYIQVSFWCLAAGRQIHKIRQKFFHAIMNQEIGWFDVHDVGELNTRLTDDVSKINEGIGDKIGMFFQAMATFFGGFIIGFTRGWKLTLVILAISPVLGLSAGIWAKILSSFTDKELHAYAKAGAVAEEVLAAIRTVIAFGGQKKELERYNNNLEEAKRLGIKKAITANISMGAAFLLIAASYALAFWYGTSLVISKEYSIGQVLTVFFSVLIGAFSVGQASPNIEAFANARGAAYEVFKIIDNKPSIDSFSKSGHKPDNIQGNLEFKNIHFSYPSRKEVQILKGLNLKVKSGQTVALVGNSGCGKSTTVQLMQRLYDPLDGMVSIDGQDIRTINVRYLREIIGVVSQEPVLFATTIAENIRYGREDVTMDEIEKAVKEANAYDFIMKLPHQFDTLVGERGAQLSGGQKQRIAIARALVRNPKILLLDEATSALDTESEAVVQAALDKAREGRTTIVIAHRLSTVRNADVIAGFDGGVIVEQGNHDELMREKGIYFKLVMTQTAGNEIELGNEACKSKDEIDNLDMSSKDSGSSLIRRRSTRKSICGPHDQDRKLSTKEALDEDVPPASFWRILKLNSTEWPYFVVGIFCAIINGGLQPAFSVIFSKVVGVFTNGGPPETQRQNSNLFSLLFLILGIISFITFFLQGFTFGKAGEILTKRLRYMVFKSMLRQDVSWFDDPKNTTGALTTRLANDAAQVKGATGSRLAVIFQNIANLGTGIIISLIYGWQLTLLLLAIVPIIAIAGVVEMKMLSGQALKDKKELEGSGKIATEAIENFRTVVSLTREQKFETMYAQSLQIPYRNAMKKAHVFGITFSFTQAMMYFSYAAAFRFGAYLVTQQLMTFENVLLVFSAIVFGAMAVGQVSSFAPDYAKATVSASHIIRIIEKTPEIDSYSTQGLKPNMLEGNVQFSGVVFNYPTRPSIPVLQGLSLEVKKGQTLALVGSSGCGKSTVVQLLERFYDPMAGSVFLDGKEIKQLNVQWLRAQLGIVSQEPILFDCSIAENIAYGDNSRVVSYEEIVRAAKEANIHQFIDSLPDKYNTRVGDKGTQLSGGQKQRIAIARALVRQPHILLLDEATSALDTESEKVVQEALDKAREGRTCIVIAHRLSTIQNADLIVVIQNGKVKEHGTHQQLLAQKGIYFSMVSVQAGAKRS
Description: as §1, §2

[7] = target: T5, Pgp C952A/Y306A (Mus musculus, UniProt P21447, C952A/Y306A); experiment: as above; format: binding
T5 construct: 6xHis (C); made in house; host or cells: Pichia pastoris
T5 sequence (P21447 whole entry Y306A/C952A): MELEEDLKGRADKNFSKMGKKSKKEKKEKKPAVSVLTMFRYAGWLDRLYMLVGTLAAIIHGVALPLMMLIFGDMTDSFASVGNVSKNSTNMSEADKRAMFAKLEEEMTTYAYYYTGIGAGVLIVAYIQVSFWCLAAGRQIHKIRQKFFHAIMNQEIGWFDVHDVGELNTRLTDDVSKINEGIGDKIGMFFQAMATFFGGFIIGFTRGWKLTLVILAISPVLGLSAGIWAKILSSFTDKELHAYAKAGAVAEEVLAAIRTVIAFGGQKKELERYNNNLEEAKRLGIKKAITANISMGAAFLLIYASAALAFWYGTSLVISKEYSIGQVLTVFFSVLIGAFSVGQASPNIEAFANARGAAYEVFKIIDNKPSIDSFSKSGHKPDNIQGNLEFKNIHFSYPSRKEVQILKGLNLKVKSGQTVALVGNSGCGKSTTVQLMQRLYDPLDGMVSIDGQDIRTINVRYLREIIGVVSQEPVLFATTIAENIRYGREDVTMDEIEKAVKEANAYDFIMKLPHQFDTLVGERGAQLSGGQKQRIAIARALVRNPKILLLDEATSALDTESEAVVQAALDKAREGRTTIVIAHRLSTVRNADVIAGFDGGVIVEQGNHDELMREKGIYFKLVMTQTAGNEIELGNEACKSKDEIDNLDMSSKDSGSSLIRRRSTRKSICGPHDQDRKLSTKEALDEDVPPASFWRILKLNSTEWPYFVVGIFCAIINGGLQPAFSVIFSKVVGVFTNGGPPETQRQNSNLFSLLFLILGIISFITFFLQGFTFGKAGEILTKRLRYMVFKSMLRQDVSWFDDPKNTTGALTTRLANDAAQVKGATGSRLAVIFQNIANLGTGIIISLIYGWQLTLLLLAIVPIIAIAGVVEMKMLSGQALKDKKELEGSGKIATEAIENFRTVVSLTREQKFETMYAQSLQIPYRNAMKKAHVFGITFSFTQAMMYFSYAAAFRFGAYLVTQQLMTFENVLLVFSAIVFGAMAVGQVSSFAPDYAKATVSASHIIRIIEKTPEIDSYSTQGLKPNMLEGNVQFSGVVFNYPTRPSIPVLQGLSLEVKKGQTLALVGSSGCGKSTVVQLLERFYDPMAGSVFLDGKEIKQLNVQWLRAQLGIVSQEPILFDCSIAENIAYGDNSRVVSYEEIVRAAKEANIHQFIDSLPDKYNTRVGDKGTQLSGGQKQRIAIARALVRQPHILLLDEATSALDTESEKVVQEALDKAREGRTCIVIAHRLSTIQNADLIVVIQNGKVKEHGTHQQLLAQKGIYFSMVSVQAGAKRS
Description: as §1, §2

[8] = target: T6, Pgp C952A/F724A (Mus musculus, UniProt P21447, C952A/F724A); experiment: as above; format: binding
T6 construct: 6xHis (C); made in house; host or cells: Pichia pastoris
Description: as §1, §2

[9] = system: Pgp C952A control and the five aromatic replacement mutants (Y303A, Y306A, F724A, F728A, F979A); experiment: Effect of BDE-100 on basal and verapamil-stimulated ATPase activity; format: biochemical, mouse; details: BDE-100 at 50, 75 and 100 µM
Description: Figure 3 The effect of BDE-100 on the verapamil-stimulated ATPase activity of the six Pgp mutations. […]. The level of BDE-100 inhibition of the verapamil-stimulated ATPase EC50 for each mutant is also shown. P values were determined from a two-tailed unequal variance test: ****, p ≤ 0.0001; ***, p ≤0.0001–0.001; *, p ≤0.05–0.01. […]
(Figure 4) were chosen to yield a more finely sampled dose response for this figure. BDE-100 alone had little effect on Pgp ATPase activity. Inhibitory effects of BDE-100 at 50 µM, 75 µM and 100 µM on the Verapamil-EC50 specific to each mutant were determined. All measurements were determined with seven independent measurements (n=7).
(1 picture or pasted object on this page, not shown here)

## Brc1ccc(Oc2c(Br)cc(Br)cc2Br)c(Br)c1 [BDE-100]
[1]
  Occupancy of BDE-100, site 1: 66%
[1]; as fraction
  Refined ligand occupancy, site 1: 0.66
[2]
  Inhibition of verapamil-stimulated ATPase activity: potent inhibitor
[2]; wild-type Pgp
  Effect of BDE-100 alone on basal ATPase activity: did not increase the basal ATPase activity
[3]
  Occupancy of BDE-100, site 1: 65%
[4]; C952A
  Occupancy of BDE-100, site 1: 67%
[4]; C952A control, as fraction
  Refined ligand occupancy, site 1: 0.67
[5]
  Occupancy of BDE-100, site 1 (designated site 1A): 53 ^† %
  Occupancy of BDE-100, site 2: 48%
[6]
  Occupancy of BDE-100, site 1: 64%
  Occupancy of BDE-100, site 2: 56%
[7]
  Occupancy of BDE-100, site 1: 68%
  Occupancy of BDE-100, site 2: 49%
[8]
  Occupancy of BDE-100, site 3: 35%
[9]; absence of verapamil, C952A control and five mutants
  Effect of BDE-100 alone on basal ATPase activity: did not increase the basal ATPase activity; also recorded: little effect
[9]; at the verapamil EC50 determined for each mutant
  Effect of BDE-100 on verapamil-stimulated ATPase activity: inhibited; also recorded: significant inhibitory effect
